{"source": "patent US20250161309A1", "about": "“TOPICAL COMPOSITIONS AND USES THEROF” (TOPADUR PHARMA AG, priority 2022, published 2025)", "key": {"[1]": {"test_system": "C57BL/6 mouse model for chemotherapy-induced alopecia (CIA)", "assay": "Preventive C57BL/6 mouse model of cyclophosphamide (chemotherapy)-induced alopecia (CIA), topical administration", "assay_type": "in vivo", "conditions": "female mice; for mice with visual melanogenesis in peeled skin: end of study; for Ki-67 mean score (positive cells near the root sheath of hair follicles, semi-quantitative grading): vehicle 0.4; for CD-31 mean score (perifollicular angiogenesis, semi-quantitative grading): vehicle group 0.8", "description": "Female C57BL/6 mice (Vivo Bio Tech Ltd, Telangana, India) of 6 to 9 weeks of age in stable telogen phase of hair growth cycle were used.\n100 μL of a clear solution of respective 0.0004%, 0.002% (w/v) concentrations of Cpd 1 in the corresponding vehicle (PEG-400:EtOH/7:3) (PEG-400: Central Drug House Ltd. Dehli, India; Ethanol: Changshu Hongsheng fine chemicals Co. Ltd. China) and the positive control, 2% solution (w/v) Minoxidil (Chemieliva, China) in the corresponding vehicle (PEG-400:EtOH/7:3) were topically applied to the depilated area on the dorsal back of female mice. The solutions covered a circular area of approximately 4 cm^2. The treatment regimen was twice daily for 7 days before Cyclophosphamide injection and afterwards for 3 weeks.\nAnimals (female) on day 1 weighted on average 18.8 g+0.2 ranging from 18.5 to 19.3 g. The animals were exposed by gentle clipping of hair from the dorsal back using an electric clipper. The following day, animals with clear skin were depilated using a depilatory cream. To evaluate the preventive potential of Cpd 1 in the chemotherapy-induced alopecia mouse model, animals were treated topically with 0.0004% and 0.002% Cpd 1, 2% Minoxidil and vehicle from day 1 onwards on the dorsal depilated skin with twice daily application regimen until day 10, when all the animals have attained the anagen stage. On day 11 after depilation, no application of the Cpd 1 or vehicle was done. This was considered a wash-out period. On day 12 after depilation, the animals were given intraperitoneal injection of cyclophosphamide (CYP-HiMedia Laboratories, Mumbai, India) at the dose of 150 mg/kg body weight. One day of wash-out period was given to the animals before restarting the treatment with Cpd 1. The treatment regimen was reinitiated with 0.0004% and 0.002% Cpd 1, 2% Minoxidil and vehicle in the respective groups for further 3 weeks. All the animals were observed from day 1 (experiment start) till day 30 (experiment termination and animal sacrifice day) and the hair growth score was recorded on a daily basis. The criteria for scoring of hair growth is as follows: no hair growth, pink skin—score 0; skin colour changes from pink to grey/light grey without visible hair growth—score 0.5; onset of anagen (skin colour changes from grey/light grey to dark grey/black without visible hair growth)—score 1; sparse hair growth—score 1.5; diffuse short hair growth—score 2, moderate hair growth—score 2.5 and dense, normal coat hair—score 3 (Lee B H, Lee J S, Kim Y C. Hair growth-promoting effects of lavender oil in C57BL/6 mice. Toxicol Res. (2016) 32(2):103-108). Photographs of the animals were captured before the initiation and during the course of the study. […]\nAfter completion of the experiments all animals were sacrificed by euthanasia (Choi H I, Kang B M, Jang J, Hwang S T, Kwon O. Novel effect of sildenafil on hair growth. Biochem Biophys Res Commun. (2018) 505(3):685-691). The dorsal skin of each animal was then removed by peeling. The peeled skin was spread and checked visually for the induction of melanogenesis indicated by visual blackening on the reverse side of the skin. The skin samples were evenly spread on a pre-labelled glass slide and kept in 10% formalin until further use. Later, the skin samples were embedded in paraffin and sectioned at 5 microns using a microtome and the corresponding slides per animal were prepared. The slides obtained were used for Haematoxylin & Eosin (H&E) staining and in the transverse and longitudinal sections' photomicrographs data, the total number of follicles in the dermis and the sub cutis were determined for each animal. The skin thickness was measured using Image J 1.44 software. […]"}, "[2]": {"test_system": "battery of 44 targets (SafetyScreen44)", "assay": "Off-target selectivity, (radio)ligand binding and enzymatic assays, SafetyScreen44 (Eurofins Cerep)", "parameters": "species or system human", "conditions": "100 nM; all 44 targets of Table 4 (incl. hERG, PDE3A, PDE4D2, COX1, COX2); no significant responses", "description": "In vitro pharmacological profiling is increasingly being used earlier in the drug discovery process to identify undesirable off-target activity profiles that could hinder or halt the development of candidate drugs or even lead to market withdrawal if discovered after a drug is approved (Bowes N, et. al., Nature Reviews Drug Discovery 11(12):909-22). Thus, the Off-target selectivity of Compound 1 at 100 nM was tested in (radio)ligand binding and enzymatic assays against a battery of 44 targets (SafetyScreen44™, atEurofins Cerep, France)."}}}
{"smiles": "CCCOc1ccc(S(=O)(=O)N2CCC(CCO[N+](=O)[O-])(CCO[N+](=O)[O-])CC2)cc1-c1nc2c(CCC)cn(CC)c2c(=O)[nH]1", "note": "[Cpd 1, (1-((3-(5-ethyl-4-oxo-7-propyl-4,5-dihydro-3H-pyrrolo[3,2-d]pyrimidin-2-yl)-4-propoxyphenyl)sulfonyl)piperidine-4,4-diyl)bis(ethane-2,1-diyl) dinitrate]", "values": [{"measurement": "number of hair follicles, Cpd 1 compared with 2% Minoxidil-treated groups", "setting": "[1]", "result": "No significant differences"}, {"measurement": "signs of alopecia after CYP administration on day 12", "setting": "[1]; 0.0004% (w/v)", "result": "minor signs of alopecia"}, {"measurement": "mice with visual melanogenesis in peeled skin", "setting": "[1]; 0.0004% (w/v)", "result": "6/7"}, {"measurement": "Ki-67 mean score (positive cells near the root sheath of hair follicles, semi-quantitative grading)", "setting": "[1]; 0.0004% (w/v)", "result": 1.4}, {"measurement": "CD-31 mean score (perifollicular angiogenesis, semi-quantitative grading)", "setting": "[1]; 0.0004% (w/v)", "result": 1.4}, {"measurement": "depth and development of dermal papilla and long hair shaft of hair follicles observed (longitudinal skin sections)", "setting": "[1]; 0.0004% and 0.002%", "result": "majority of the animals"}, {"measurement": "thickness of the skin compared to vehicle group", "setting": "[1]; 0.0004% and 0.002%", "result": "slightly increase"}, {"measurement": "skin color change (transition from telogen to anagen phase) compared to Minoxidil-treated group", "setting": "[1]; 0.0004% and 0.002%, before CYP administration, majority of animals, end of first week of application", "result": "faster"}, {"measurement": "increase in hair growth, 0.002% compared to 0.0004%", "setting": "[1]; 0.002% (w/v)", "result": "slightly faster increase"}, {"measurement": "signs of alopecia after CYP administration on day 12", "setting": "[1]; 0.002% (w/v)", "result": "no signs of alopecia"}, {"measurement": "mice with visual melanogenesis in peeled skin", "setting": "[1]; 0.002% (w/v)", "result": "7/7"}, {"measurement": "Ki-67 mean score (positive cells near the root sheath of hair follicles, semi-quantitative grading)", "setting": "[1]; 0.002% (w/v)", "result": 1.7}, {"measurement": "CD-31 mean score (perifollicular angiogenesis, semi-quantitative grading)", "setting": "[1]; 0.002% (w/v)", "result": 1.6}, {"measurement": "adverse effects on body weight", "setting": "[1]; 30-day study, any of the groups", "result": "no adverse effects"}, {"measurement": "behavioral changes, reaction to treatment or adverse effects in relation to general health", "setting": "[1]; 30-day study, topical twice daily", "result": "no signs of behavioral changes, reaction to treatment or adverse effects"}, {"measurement": "decrease in the mean hair growth after CYP administration", "setting": "[1]; Compound 1 treated groups", "result": "no decrease"}, {"measurement": "number of hair follicles in the subcutis layer of the skin and total follicle counts compared to vehicle group (H&E)", "setting": "[1]; Compound 1 treated groups", "result": "significantly increased"}, {"measurement": "animals with complete hair regrowth (hair growth score of 3)", "setting": "[1]; Cpd 1 groups (0.0004% and 0.002%)", "result": "7/7"}, {"measurement": "increase in hair growth compared to Minoxidil and vehicle group", "setting": "[1]; from day 6/7 onwards", "result": "faster increase"}, {"measurement": "inhibition or stimulation to any of the targets", "setting": "[2]", "result": "< 50", "unit": "%"}]}
